In patent publication US6525001B1, “Substituted pyrimidine and pyridine herbicides” (Mid-American Commercialization Corporation, priority 1997, dated 2003):

Columns and labels:
Type in all cases: in vivo
[1] = system: annual bluegrass (Poa annua); test: Test E pre-/postemergence/post directed; design: key: 0 is no effect; 100 is complete control; settings: PREEMERGENCE
Summary of the method: (§1)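 Injury was scored visually on a 0 to 100 scale (100 = complete control) 13 to 21 days after treatment of greenhouse-grown plants. Test chemicals, in a surfactant-containing non-phytotoxic solvent, were sprayed onto soil within a day of planting, onto plants at the two to four leaf stage, or directed at the base of the plants.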

[2] = system: leafy spurge (Euphorbia esula); test: Test E pre-/postemergence/post directed; design: key: 0 is no effect; 100 is complete control; settings: PREEMERGENCE
Summary of the method: as §1

[3] = system: Spanishneedles (Bidens bipinnata); test: Test E pre-/postemergence/post directed; design: key: 0 is no effect; 100 is complete control; settings: PREEMERGENCE
Summary of the method: as §1

[4] = system: common chickweed (Stellaria media); test: Test E pre-/postemergence/post directed; design: key: 0 is no effect; 100 is complete control; settings: PREEMERGENCE
Summary of the method: as §1

[5] = system: alexandergrass (Brachiaria plantaginea); test: Test E pre-/postemergence/post directed; design: key: 0 is no effect; 100 is complete control; settings: PREEMERGENCE
Summary of the method: as §1

[6] = system: quackgrass (Agropyron repens); test: Test E pre-/postemergence/post directed; design: key: 0 is no effect; 100 is complete control; settings: PREEMERGENCE
Summary of the method: as §1

[7] = system: green foxtail (Setaria viridis); test: Test E pre-/postemergence/post directed; design: key: 0 is no effect; 100 is complete control; settings: PREEMERGENCE
Summary of the method: as §1

[8] = system: johnson grass (Sorghum halepense); test: Test E pre-/postemergence/post directed; design: key: 0 is no effect; 100 is complete control
Summary of the method: as §1

kochia (Kochia scoparia) = test: Test D; design: key: 0 is no effect; 100 is complete control; settings: PREEMERGENCE
[9] = system: black nightshade (Solanum nigra); test: Test D; design: key: 0 is no effect; 100 is complete control; settings: PREEMERGENCE
[10] = system: lambsquarters (Chenopodium album); test: Test D; design: key: 0 is no effect; settings: POSTEMERGENCE
Method: Compounds evaluated in this test were formulated in a non-phytotoxic solvent mixture which included a surfactant and applied to plants that were in the 1- to 4-leaf stage (postemergence application). A mixture of sandy loam soil and greenhouse potting mix in a 60:40 ratio was used for the postemergence test.
Plantings of these crops and weed species were adjusted to produce plants of appropriate size for the postemergence test. All plant species were grown using normal greenhouse practices. Crop and weed species include alfalfa (Medicago sativa), annual bluegrass (Poa annua), blackgrass (Alopecurus myosuroides), black nightshade (Solanum nigra), chickweed (Stellaria media), common poppy (Papaver rhoeas), deadnettle (Lamium amplexicaule), downy brome (Bromus tectorum), field violet (Viola arvensis), galium 2 (Galium aparine), green foxtail (Setaria viridis), Italian ryegrass (Lolium multiflorum), jointed goatgrass (Aegilops cylindrica), kochia (Kochia scoparia), lambsquarters (Chenopodium album), lentil (Lens culinaris), littleseed canarygrass (Phalaris minor), pea (Pisum sativum), potato (Solanum tuberosum), rape (Brassica napus), redroot pigweed (Amaranthus retroflexus), Russian thistle (Salsola kali), scentless chamomile (Matricaria inodora), sorghum (Sorghum vulgare), spring barley (Hordeum vulgare), sugar beet (Beta vulgaris), sunflower (Helianthus annuus), ivyleaf speedwell (Veronica hederaefolia), spring wheat (Triticum aestivum), winter wheat (Triticum aestivum), wild buckwheat (Polygonum convolvulus), wild mustard (Sinapis arvensis), wild oat (Avena fatua), windgrass (Apera spica-venti) and winter barley (Hordeum vulgare).
Treated plants and untreated controls were maintained in a greenhouse for approximately 21 to 28 days, after which all treated plants were compared to untreated controls and visually evaluated. Plant response ratings, summarized in Table D, are based upon a 0 to 100 scale where 0 is no effect and 100 is complete control. A dash response (−) means no test result.

[11] = system: chickweed (Stellaria media); test: Test D; settings: PREEMERGENCE
[12] = system: spring barley (Hordeum vulgare); test: Test D; settings: PREEMERGENCE
[13] = system: annual bluegrass (Poa annua); test: Test D; design: key: 0 is no effect; 100 is complete control; settings: PREEMERGENCE
[14] = system: pitted morningglory (Ipomoea lacunosa); test: Test E pre-/postemergence/post directed; design: key: 0 is no effect; 100 is complete control; settings: PREEMERGENCE
Summary of the method: as §1

Cc1cnc(-c2ccc(C(F)(F)F)cc2)nc1Cc1cccc(OC(F)(F)F)c1 [Compound 15]
Plant response rating, A. bluegrass ([1]; Rate 32 g/ha): 100 | Plant response rating, A. bluegrass ([1]; Rate 64 g/ha): 100 | Plant response rating, A. bluegrass ([1]; Rate 125 g/ha): 100 | Plant response rating, A. bluegrass ([1]; Rate 250 g/ha): 100 | Plant response rating, Leafy spurge ([2]; Rate 32 g/ha): 35 | Plant response rating, Leafy spurge ([2]; Rate 64 g/ha): 65 | Plant response rating, Leafy spurge ([2]; Rate 250 g/ha): 98 | Plant response rating, Spanishneedles ([3]; Rate 250 g/ha): 100 | Plant response rating, Com. chickweed ([4]; Rate 32 g/ha): 65 | Plant response rating, Com. chickweed ([4]; Rate 64 g/ha): 85 | Plant response rating, Com. chickweed ([4]; Rate 125 g/ha): 98 | Plant response rating, Com. chickweed ([4]; Rate 250 g/ha): 100 | Plant response rating, Alexandergrass ([5]; Rate 125 g/ha): 100 | Plant response rating, Alexandergrass ([5]; Rate 250 g/ha): 100 | Plant response rating, Quackgrass ([6]; Rate 32 g/ha): 65 | Plant response rating, Quackgrass ([6]; Rate 64 g/ha): 65 | Plant response rating, Quackgrass ([6]; Rate 125 g/ha): 95 | Plant response rating, Quackgrass ([6]; Rate 250 g/ha): 95 | Plant response rating, Green foxtail ([7]; Rate 32 g/ha): 100 | Plant response rating, Green foxtail ([7]; Rate 64 g/ha): 100 | Plant response rating, Green foxtail ([7]; Rate 125 g/ha): 100 | Plant response rating, Green foxtail ([7]; Rate 250 g/ha): 100 | Plant response rating, Johnsongrass ([8]; POSTEMERGENCE, Rate 250 g/ha): 100 | Plant response rating, Johnsongrass ([8]; PREEMERGENCE, Rate 250 g/ha): 100

Cc1cnc(-c2ccc(C(F)(F)F)cc2)nc1Cc1cccc(C(F)(F)F)c1 [Example 1, 5-methyl-2-[4-(trifluoromethyl)phenyl]-4-[[3-(trifluoromethyl)phenyl]methyl]pyrimidine]
Plant response rating, Kochia (kochia (Kochia scoparia); Rate 31 g/ha): 40 | Plant response rating, Kochia (kochia (Kochia scoparia); Rate 62 g/ha): 100 | Plant response rating, Kochia (kochia (Kochia scoparia); Rate 125 g/ha): 100 | Plant response rating, Kochia (kochia (Kochia scoparia); Rate 250 g/ha): 85 | Plant response rating, Blk nightshade ([9]; Rate 31 g/ha): 55 | Plant response rating, Blk nightshade ([9]; Rate 62 g/ha): 90 | Plant response rating, Blk nightshade ([9]; Rate 125 g/ha): 100 | Plant response rating, Blk nightshade ([9]; Rate 250 g/ha): 100 | Plant response rating, Lambsquarters ([10]; Rate 16 g/ha): 0 | Plant response rating, Lambsquarters ([10]; Rate 31 g/ha): 60 | Plant response rating, Lambsquarters ([10]; Rate 62 g/ha): 60 | Plant response rating, Lambsquarters ([10]; Rate 125 g/ha): 50 | Plant response rating, Chickweed ([11]; Rate 31 g/ha): 55 | Plant response rating, Chickweed ([11]; Rate 62 g/ha): 85 | Plant response rating, Chickweed ([11]; Rate 125 g/ha): 85 | Plant response rating, Chickweed ([11]; Rate 250 g/ha): 90 | Plant response rating, Spring Barley ([12]; Rate 31 g/ha): 10 | Plant response rating, Spring Barley ([12]; Rate 62 g/ha): 20 | Plant response rating, Spring Barley ([12]; Rate 125 g/ha): 20 | Plant response rating, Spring Barley ([12]; Rate 250 g/ha): 40 | Plant response rating, Annual bluegras ([13]; Rate 31 g/ha): 75 | Plant response rating, Annual bluegras ([13]; Rate 62 g/ha): 60 | Plant response rating, Annual bluegras ([13]; Rate 125 g/ha): 100 | Plant response rating, Annual bluegras ([13]; Rate 250 g/ha): 85 | Plant response rating, A. bluegrass ([1]; Rate 32 g/ha): 90 | Plant response rating, A. bluegrass ([1]; Rate 64 g/ha): 100 | Plant response rating, A. bluegrass ([1]; Rate 125 g/ha): 100 | Plant response rating, Leafy spurge ([2]; Rate 32 g/ha): 75 | Plant response rating, Leafy spurge ([2]; Rate 64 g/ha): 95 | Plant response rating, Leafy spurge ([2]; Rate 125 g/ha): 100 | Plant response rating, Spanishneedles ([3]; Rate 250 g/ha): 100 | Plant response rating, Com. chickweed ([4]; Rate 32 g/ha): 30 | Plant response rating, Com. chickweed ([4]; Rate 64 g/ha): 95 | Plant response rating, Com. chickweed ([4]; Rate 125 g/ha): 100 | Plant response rating, Alexandergrass ([5]; Rate 250 g/ha): 100 | Plant response rating, P. morninglory ([14]; Rate 125 g/ha): 100 | Plant response rating, P. morninglory ([14]; Rate 250 g/ha): 100 | Plant response rating, Quackgrass ([6]; Rate 32 g/ha): 65 | Plant response rating, Quackgrass ([6]; Rate 64 g/ha): 80 | Plant response rating, Quackgrass ([6]; Rate 125 g/ha): 100 | Plant response rating, Green foxtail ([7]; Rate 32 g/ha): 100 | Plant response rating, Green foxtail ([7]; Rate 64 g/ha): 100 | Plant response rating, Green foxtail ([7]; Rate 125 g/ha): 100 | Plant response rating, Johnsongrass ([8]; PREEMERGENCE, Rate 250 g/ha): 100

Cc1cnc(-n2ccc(C(F)(F)F)n2)nc1Cc1cccc(C(F)(F)F)c1 [Example 2, 5-methyl-4-[[3-(trifluoromethyl)phenyl]methyl]-2-[3-(trifluoromethyl)-1H-pyrazol-1-yl]pyrimidine]
Plant response rating, A. bluegrass ([1]; Rate 32 g/ha): 80 | Plant response rating, A. bluegrass ([1]; Rate 64 g/ha): 100 | Plant response rating, A. bluegrass ([1]; Rate 125 g/ha): 100 | Plant response rating, A. bluegrass ([1]; Rate 250 g/ha): 100 | Plant response rating, Leafy spurge ([2]; Rate 32 g/ha): 60 | Plant response rating, Leafy spurge ([2]; Rate 64 g/ha): 98 | Plant response rating, Leafy spurge ([2]; Rate 125 g/ha): 100 | Plant response rating, Leafy spurge ([2]; Rate 250 g/ha): 100 | Plant response rating, Spanishneedles ([3]; Rate 64 g/ha): 100 | Plant response rating, Spanishneedles ([3]; Rate 125 g/ha): 100 | Plant response rating, Spanishneedles ([3]; Rate 250 g/ha): 100 | Plant response rating, Spanishneedles ([3]; Rate 500 g/ha): 100 | Plant response rating, Com. chickweed ([4]; Rate 32 g/ha): 100 | Plant response rating, Com. chickweed ([4]; Rate 64 g/ha): 100 | Plant response rating, Com. chickweed ([4]; Rate 125 g/ha): 100 | Plant response rating, Com. chickweed ([4]; Rate 250 g/ha): 100 | Plant response rating, Alexandergrass ([5]; Rate 125 g/ha): 100 | Plant response rating, Alexandergrass ([5]; Rate 250 g/ha): 100 | Plant response rating, Alexandergrass ([5]; Rate 500 g/ha): 100 | Plant response rating, P. morninglory ([14]; Rate 32 g/ha): 100 | Plant response rating, P. morninglory ([14]; Rate 64 g/ha): 100 | Plant response rating, P. morninglory ([14]; Rate 125 g/ha): 100 | Plant response rating, P. morninglory ([14]; Rate 250 g/ha): 100 | Plant response rating, P. morninglory ([14]; Rate 500 g/ha): 100 | Plant response rating, Quackgrass ([6]; Rate 32 g/ha): 20 | Plant response rating, Quackgrass ([6]; Rate 64 g/ha): 90 | Plant response rating, Quackgrass ([6]; Rate 125 g/ha): 100 | Plant response rating, Quackgrass ([6]; Rate 250 g/ha): 100 | Plant response rating, Green foxtail ([7]; Rate 32 g/ha): 90 | Plant response rating, Green foxtail ([7]; Rate 64 g/ha): 100 | Plant response rating, Green foxtail ([7]; Rate 125 g/ha): 100 | Plant response rating, Green foxtail ([7]; Rate 250 g/ha): 100 | Plant response rating, Johnsongrass ([8]; PREEMERGENCE, Rate 250 g/ha): 100 | Plant response rating, Johnsongrass ([8]; PREEMERGENCE, Rate 500 g/ha): 100
